Data taken from US20220144839A1, “INDOLE AHR INHIBITORS AND USES THEREOF” (Ikena Oncology, Inc., priority 2018, published 2022).

Target: T1, AHR (UniProt P35869)
T1 sequence (P35869 1-848): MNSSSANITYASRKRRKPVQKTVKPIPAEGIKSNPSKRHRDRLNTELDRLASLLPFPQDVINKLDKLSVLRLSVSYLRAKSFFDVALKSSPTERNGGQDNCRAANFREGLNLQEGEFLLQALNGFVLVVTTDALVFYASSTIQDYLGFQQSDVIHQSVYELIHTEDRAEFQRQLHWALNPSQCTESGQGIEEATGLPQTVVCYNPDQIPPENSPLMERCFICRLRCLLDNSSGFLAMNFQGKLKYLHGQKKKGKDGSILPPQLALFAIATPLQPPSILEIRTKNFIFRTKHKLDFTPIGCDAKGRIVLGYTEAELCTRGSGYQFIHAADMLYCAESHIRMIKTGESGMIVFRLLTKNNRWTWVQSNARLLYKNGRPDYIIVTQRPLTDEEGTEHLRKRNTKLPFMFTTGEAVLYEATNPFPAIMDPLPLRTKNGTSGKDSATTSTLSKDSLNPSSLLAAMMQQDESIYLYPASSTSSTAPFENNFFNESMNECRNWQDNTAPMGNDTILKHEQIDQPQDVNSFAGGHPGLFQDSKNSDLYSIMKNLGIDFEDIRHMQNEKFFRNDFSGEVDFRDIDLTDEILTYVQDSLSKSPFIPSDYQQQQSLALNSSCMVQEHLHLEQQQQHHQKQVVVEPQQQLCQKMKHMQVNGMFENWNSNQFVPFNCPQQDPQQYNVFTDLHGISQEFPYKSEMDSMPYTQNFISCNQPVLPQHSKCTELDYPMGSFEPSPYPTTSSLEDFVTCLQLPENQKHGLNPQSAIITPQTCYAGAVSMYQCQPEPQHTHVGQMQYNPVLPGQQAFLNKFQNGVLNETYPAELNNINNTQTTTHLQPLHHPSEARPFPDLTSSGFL
Test: DRE-Luciferase Reporter Assay (Alternate Method), Example 1B
Assay type: cell-based
Conditions: concentration which inhibits half of the luciferase activity induced by AHR activating ligand; DRE-luciferase reporter cell line
Method in brief: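 Murine (Hepa1-6, Hepa-1c1c7) or human (HepG2) cells carrying a stable or transient DRE-luciferase reporter, stimulated with an AHR agonist (e.g. TCDD, kynurenine, ITE, BNF, FICZ) plus compound at plating or after overnight culture at 37 °C. Luciferase read after 4, 15 or 24 h; IC50 as concentration halving agonist-only signal relative to no-ligand baseline.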

Row | SMILES | IC50
1 | Fc1cncc(-c2nc(N[C@@H]3CCc4[nH]c5ccccc5c4C3)n3nc4c(c3n2)CCCC4)c1 [Compound I-30, 2-(5-fluoro-3-pyridyl)-N-[(3R)-2,3,4,9-tetrahydro-1H-carbazol-3-yl]-7,8,9,10-tetrahydro-[1,3,5]triazino[1,2-b]indazol-4-amine] | 0.5 to 1 µM
2 | CC(C)c1cnn2c(NCCNc3ccccn3)nc(-c3cncc(F)c3)nc12 [Compound I-45, N′-[2-(5-Fluoro-3-pyridyl)-8-isopropyl-pyrazolo[1,5-a][1,3,5]triazin-4-yl]-N-(2-pyridyl)ethane-1,2-diamine] | 1 to 1.5 µM
3 | C[C@@H](NCC1CC1)c1cnn2c(N[C@@H]3CCc4[nH]c5ccccc5c4C3)nc(-c3cncc(F)c3)nc12 [Compound I-20b, (3R)—N-[8-[(1R)-1-(Cyclopropylmethylamino)ethyl]-2-(5-fluoro-3-pyridyl)pyrazolo[1,5-a][1,3,5]triazin-4-yl]-2,3,4,9-tetrahydro-1H-carbazol-3-amine] | < 0.5 µM
4 | Fc1cncc(-c2nc(N[C@@H]3CCc4[nH]c5ccccc5c4C3)n3nc4c(c3n2)COCC4)c1 [Compound I-33, 2-(5-fluoro-3-pyridyl)-N-[(3R)-2,3,4,9-tetrahydro-1H-carbazol-3-yl]-8,10-dihydro-7H-pyrano[2,3]pyrazolo[2,4-c][1,3,5]triazin-4-amine] | < 0.5 µM
5 | CC(C)c1cnn2c(N[C@H]3CCc4[nH]c5c(O)cccc5c4C3)nc(-c3cncc(F)c3)nc12 [Compound I-24b, (6S)-6-[[2-(5-fluoro-3-pyridyl)-8-isopropyl-pyrazolo[1,5-a][1,3,5]triazin-4-yl]amino]-6,7,8,9-tetrahydro-5H-carbazol-1-ol] | > 1.5 µM
6 | O[C@H](c1cnn2c(N[C@@H]3CCc4[nH]c5ccccc5c4C3)nc(-c3cncc(F)c3)nc12)C(F)(F)F [Compound I-41a, (1R)-2,2,2-Trifluoro-1-[2-(5-fluoro-3-pyridyl)-4-[[(3R)-2,3,4,9-tetrahydro-1H-carbazol-3-yl]amino]pyrazolo[1,5-a][1,3,5]triazin-8-yl]ethanol] | < 0.5 µM
7 | C[C@H](NCC1CC1)c1cnn2c(N[C@@H]3CCc4[nH]c5ccccc5c4C3)nc(-c3cncc(F)c3)nc12 [Compound I-20a, (3R)—N-[8-[(1S)-1-(Cyclopropylmethylamino)ethyl]-2-(5-fluoro-3-pyridyl)pyrazolo[1,5-a][1,3,5]triazin-4-yl]-2,3,4,9-tetrahydro-1H-carbazol-3-amine] | 1 to 1.5 µM
8 | Fc1cncc(-c2nc(N[C@@H]3CCc4[nH]c5ccccc5c4C3)n3ncc(C4CCOC4)c3n2)c1 (stereo partly drawn) [Compound I-18, (3R)—N-[2-(5-fluoro-3-pyridyl)-8-tetrahydrofuran-3-yl-pyrazolo[1,5-a][1,3,5]triazin-4-yl]-2,3,4,9-tetrahydro-1H-carbazol-3-amine] | < 0.5 µM
